Experimental data reported in PubChem BioAssay AID2305 (GlaxoSmithKline (GSK), 2010).
Where “and” joins values, the source holds several entries; their conditions need not be identical. Identical values can stand only once.

Test system: P. falciparum 3D7 growth, pLDH absorbance
Assay: blood-stage malaria parasite growth potency – strain 3D7, dose response (AID 2305)

| Compound | IC50 |
| --- | --- |
| CC1(C)N=C(N)NC(Nc2ccc(F)c(F)c2)=N1 | 50 nM |
| CC(=O)N(C)C1CCN(Cc2ccc(-c3cccc(-c4nc5ccc(F)cc5[nH]4)c3)cc2)C1 (centres undefined) | 600 nM |
| CCc1cc(CNC2CCN(CCc3c(F)cnc4ccc(OC)nc34)CC2)cc2c1OCCO2 | 260 nM |
| N#Cc1ccc(NC(=NCCc2c[nH]c3ccccc23)Nc2ccc(-c3ccccc3)cc2)c(O)c1 | 340 nM |
| O=c1[nH]c(NCCCNCc2cc3c(Cl)cc(Cl)cc3[nH]2)nc2ccsc12 | 1120 nM |
| COc1ccc(CNCc2cccc(-c3cccc(-c4nc5ccc(C(F)(F)F)cc5[nH]4)c3)c2)cc1 | 200 nM |
| CCN(CC)CCN(Cc1ccc(-c2ccc(C(F)(F)F)cc2)cc1)C(=O)Cn1c(CCc2cccc(F)c2F)cc(=O)c(C)c1C | 620 nM |
| COc1ccc(Cl)cc1N1CCN(CCCNC(=O)c2ccc(-c3nc4ccncc4[nH]3)c(Br)c2)CC1 | 1150 nM |
| O=C(Nc1ccc(-c2ccccc2)s1)N[C@H]1CCN(Cc2ccc(OCCCN3CCCCC3)cc2)C1 | 740 nM |
| Nc1nc(N)c2cc(Cc3ccc([N+](=O)[O-])cc3)cnc2n1 | 940 nM |
| CN(CCc1ccccn1)Cc1ccc(-c2ccc(-c3nc4ccccc4[nH]3)s2)cc1 | 590 nM |
| CC(C)(C)OC(=O)N(Cc1cc(-n2nnnc2C(F)(F)F)ccc1O)[C@H]1CCCN(C(=O)OC(C)(C)C)[C@H]1c1ccccc1 | 720 nM |
| O=C(Nc1ccc(CN2CCN(S(=O)(=O)c3cccc(Cl)c3)CC2)cc1)c1cccs1 | 1080 nM |
| O=C(/C=C/c1ccc(Cl)c(Cl)c1)NCC[C@@H]1C[C@H]1CCN1CCC(c2c[nH]c3ccccc23)CC1 | 790 nM |
| CCn1cnc2c(N3CCCS3(=O)=O)cc(C(=O)N[C@@H](Cc3ccccc3)[C@H](O)CNC(C)(C)c3cccc(C(F)(F)F)c3)cc21 | 230 nM |
| Cc1ccc(/C=C/C(=O)NCCCCCN2CCCN(C(=O)Nc3ccc(Cl)c(Cl)c3)CC2)cc1 | 940 nM |
| O=C(COc1ccccc1Cc1ccccc1)Nc1cc(Cl)ccc1-n1cncn1 | 640 nM |
| Cc1cc(OCCCN2CCC(NS(=O)(=O)c3ccc(Cl)c(Cl)c3)CC2)c2ccccc2n1 | 900 nM |
| O=C(NC1c2ccccc2Oc2ccccc21)c1ccccc1O | 840 nM |
| COc1cccc(C2CCN(CCN3CCC(NC(=O)c4ccc(-c5ccc(C#N)cc5)cc4)CC3)CC2)c1 | 700 nM |
| O=C(Nc1cccc(-c2nn3ccccc3c2-c2ccnc(Nc3ccccc3)n2)c1)c1c(F)cccc1F | 720 nM |
| O=C(Nc1cccc(-c2cccc(-c3nc4ccc(C(F)(F)F)cc4[nH]3)c2)c1)c1cccnc1 | 400 nM |
| COCCC[C@H]1C(=O)O[C@H]2CCC[C@@H]21 | 700 nM |
| CCOC(=O)c1ccc(NC(=O)Nc2ccc(-c3ccc(-c4nc5ccc(C(F)(F)F)cc5[nH]4)cc3)cc2)cc1 | 270 nM |

| Compound | IC50 |
| --- | --- |
| Cc1ccc2nc(-c3cc(-c4cccc(C#N)c4)cnc3N)[nH]c2c1 | 120 nM |
| Cc1cccc2[nH]c(-c3cccc(-c4ccc(NC(=O)NCc5cccc(F)c5)cc4)c3)nc12 | 240 nM |
| O=C(NCc1ccc(Cl)cc1)c1ccc(CN2CCCN(CC3CCCCC3)CC2)cc1 | 1700 nM |
| CC(C)[C@H](NC(=O)c1c(CN2CCC(N3CCCCC3)CC2)c(-c2ccccc2)nc2cc(O)ccc12)c1ccccc1 | 740 nM |
| COc1ccc(C(=O)NC(Nc2ccc([N+](=O)[O-])cc2)C(Cl)(Cl)Cl)cc1 (centres undefined) | 1070 nM |
| COc1cc(C)nc2ccc(NC(=O)Nc3ccc4nc(C)cc(OC)c4c3)cc12 | 550 nM |
| OC(c1cc(C(F)(F)F)nc2c(C(F)(F)F)cccc12)C1CCCCN1 (centres undefined) | 70 nM |
| COc1c(C2CCN(CCCCNC(=O)c3cccc(-c4ccc(C(F)(F)F)cc4)c3)CC2)ccc2c1CCCC2 | 780 nM |
| COc1ccccc1C1CC(c2ccccc2)=NN1C(=O)c1ccccc1 (centres undefined) | 300 nM |
| CN(C(=O)NCCc1ccccc1)C1CCN(CCCCCNC(=O)/C=C/c2ccc(Cl)c(Cl)c2)CC1 | 680 nM |
| CC1CCN(CC[C@H]2CCCN2S(=O)(=O)c2cccc(NC(=O)c3ccc(-c4ccc(Cl)cc4)o3)c2)CC1 | 690 nM |
| N=c1c(C(=O)NCc2ccccc2)cc2c(=O)n3ccccc3nc2n1CCc1ccccc1 | 530 nM |
| COc1ccc(NC(=O)/C=C/c2ccccc2Cl)cc1OCCN1CCC(NC2CC2)CC1 | 840 nM |
| COc1ccc2c(NN=C(C)c3ccccn3)cc(C)nc2c1 | 720 nM |
| COc1ccc(CNCCc2cccs2)cc1-c1cccc(S(=O)(=O)NCCN2CCCC2)c1 | 880 nM |
| Cc1ccc(-c2nc3ccc(C(=O)NC4CCC(N5CCCc6ccc(C#N)cc6C5)CC4)cc3[nH]2)cc1 (centres undefined) | 1360 nM |
| C=CCOC(=O)O[C@@H]1[C@@H](OC(=O)OCC=C)[C@@H](OC)O[C@H](COC(c2ccccc2)(c2ccccc2)c2ccccc2)[C@H]1OC(=O)OCC=C | 890 nM |
| Cc1cc(-c2ccc(NC(=O)Nc3ccc4nccc(N5CCN(C)CC5)c4c3)cc2C)cc(C)n1 | 150 nM |
| CCc1c(C)nc(-n2nc(C)cc2NC(=O)CCc2ccccc2)[nH]c1=O | 750 nM |
| CCc1cn(C)c2c(N3CCCC3=O)cc(C(=O)N[C@@H](Cc3ccccc3)[C@H](O)CNCc3cccc(OC)c3)cc12 | 780 nM |
| O=C(Nc1cccc(CN2CCCN(Cc3cccnc3)CC2)c1)c1cc2ccccc2s1 | 1470 nM |
| O=C(CNC1=NCCN1)Nc1ccc(NC(=O)Nc2ccc(NC(=O)CNC3=NCCN3)cc2)cc1 | 780 nM |
| CCN1CCC(N(Cc2ccc(-c3ccc(Cl)cc3)cc2)C(=O)Cn2c(CCc3cccc(F)c3F)cc(=O)c3ccccc32)CC1 | 700 nM |
| CCNc1cc(C)nc(Nc2ccc(NS(=O)(=O)c3ccccc3)cc2)n1 | 790 nM |

| Compound | IC50 |
| --- | --- |
| Cc1ccc(/C=C/C(=O)NC2CCC(CN3CCC(c4c[nH]c5ccccc45)CC3)CC2)cc1 (centres undefined) | 920 nM and 800 nM |
| Cc1cc(N[C@@H](CC(C)C)C(=O)Nc2ccccc2)nc(NCCc2ccccc2)n1 | 890 nM |
| COc1cc(CN=C(Nc2ccc(-c3ccccc3)cc2)Nc2ccc(C#N)cc2O)cc(OC)c1 | 720 nM |
| COc1ccc(-c2ccccc2OCCCNc2nc(NCCc3ccc(O)cc3)nc(N3CCNCC3)n2)cc1 | 790 nM |
| CC(=O)c1ccc(NC(=O)Nc2ccc(N(C)c3ccnc(NC4CC4)n3)cc2)cc1 | 800 nM |
| CC1c2cccc(O)c2CCN1CCc1ccc(Cl)c(Cl)c1 (centres undefined) | 140 nM |
| N=c1ccn(CC(=NO)c2ccc(Cl)c(Cl)c2)cc1 | 940 nM |
| O=C1OC2(CN1CC1CCN(Cc3ccc(O)c(Cl)c3)CC1)c1ccccc1-c1ccccc12 | 760 nM |
| Cn1cc(C2CCN(CCCCNC(=O)c3ccc(-c4ccc(C(F)(F)F)cc4)c(CO)c3)CC2)c2ccccc21 | 1000 nM |
| CCN(CC)CCCOC(=O)c1ccc2c(c1)-c1ccc(C(=O)OCCCN(CC)CC)c3cccc-2c13 | 930 nM |
| NS(=O)(=O)CCc1cccc(Nc2nccc(-c3c(-c4cccc(NC(=O)c5c(F)cccc5F)c4)nn4ccccc34)n2)c1 | 60 nM |
| CC(C)(C)c1cc(NC2CC2)nc(-c2ccccn2)n1 | 720 nM |
| CCn1ccc2c3c(N)nc(N)nc3ccc21 | 310 nM |
| CC1CN(Cc2cccc(C#N)c2)CCN1c1ccc(NC(=O)c2cccs2)cc1 (centres undefined) | 680 nM |
| OC(CNCc1ccccc1Oc1ccccc1)c1cccc(C(F)(F)F)c1 (centres undefined) | 710 nM |
| COc1c(C2CCN(CCCCNC(=O)c3oc(-c4ccc(Cl)cc4)cc3CO)CC2)ccc2c1CCCC2 | 370 nM |
| CCNc1cc(C(=O)N[C@@H](Cc2ccoc2)[C@H](O)CNC(C)CCCC(C)C)cc(N2CCCCS2(=O)=O)c1 (some centres undefined) | 620 nM |
| Cc1cccc2nc(C(=O)Nc3nc(CN4CCC(C)CC4)cs3)cn12 | 760 nM |
| COc1cc2nc(N3CCC(CNC(=O)c4ccc(-c5ccc(C(=O)N(C)C)cc5)cc4)CC3)nc(N)c2cc1OC | 750 nM |
| O=C(NC1CCN(CC2(c3ccc(Cl)cc3)CCC2)CC1)c1cscn1 | 530 nM |
| CC1(C)CCC(C)(C)c2c1ccc(C1CCN(CCCCNC(=O)c3ccc(-c4ccc(C#N)cc4)cc3)CC1)c2O | 230 nM |
| COc1cc(C(=O)NC2CCc3ccccc32)cc(Cl)c1OC (centres undefined) | 1100 nM |
| CCCC(=O)c1cnc2cc(O)ccc2c1Nc1ccccc1C | 650 nM |
| CN(C)CC1c2[nH]c3ccccc3c2CCN1C(=O)Nc1ccc(Cl)c(Cl)c1 (centres undefined) | 1210 nM |

| Compound | IC50 |
| --- | --- |
| COc1cccc2sc(N3CCN(C(=O)c4ccc([N+](=O)[O-])o4)CC3)nc12 | 870 nM |
| CC(CN1CCN(C)CC1)C(=O)Nc1ccc(-c2cccc(-c3nc4ccc(F)cc4[nH]3)c2)cc1 (centres undefined) | 520 nM |
| CC(C)NC(=O)c1cccc(-c2cccc(OCCN3CCSCC3c3ccccc3)c2)c1 (centres undefined) | 1010 nM |
| Cc1ccc2nc(N(CCCn3ccnc3)C(=O)C=Cc3cccs3)sc2c1 | 1390 nM |
| O=S(=O)(ON=C1CCc2ccccc21)c1ccc(Cl)cc1 | 1310 nM |
| O=C(/C=C/c1ccc(Cl)cc1Cl)N1CCC(CCN2CCC(c3c[nH]c4ccccc34)CC2)CC1 | 800 nM |
| CC(C)CNCc1cccc(-c2cccc(CN(CCCN3CCN(C)CC3)C(=O)CCC3CCCC3)c2)c1 | 620 nM |
| COc1nc2c(CCN3CCC(NCc4ccc5c(c4)NCCO5)CC3)c(Cl)cnc2cc1F | 180 nM |
| O[C@H]1[C@H](OCc2ccc(-c3ccccc3)cc2)CC[C@@H]1N1CCCCC1 | 1060 nM |
| O=C(Nc1cc2cc(-c3ccc(CN4CCCCC4)cc3)ccc2n2cnnc12)NC1CCCC1 | 1520 nM |
| O=S(=O)(Nc1ccc(CCN2CCC(N3CCCCC3)CC2)cc1)c1cccc(C(F)(F)F)c1 | 700 nM |
| COc1ccc2nccc([C@@H](O)CN3CCC(NC(=O)Cc4ccc(Br)c5ccccc45)CC3)c2c1 | 820 nM |
| CCN(CC)CCN(Cc1ccc(-c2ccc(C(F)(F)F)cc2)cc1)C(=O)c1ccc(-c2ccc(NC(=O)OC)cc2C)cc1 | 930 nM |
| CN1CCC(NC(=O)c2cc(Oc3ccc4c(c3)CCN4C(=O)Nc3cccc(C(F)(F)F)c3)ccn2)CC1 | 930 nM |
| O=C(Nc1ccccc1)c1ccc(N2CCC(COc3cccc(C(F)(F)F)c3)CC2)nc1 | 300 nM |
| CC[C@H]1CN2CC[C@H]1C[C@H]2[C@H](O)c1cc(-c2ccccc2C(F)(F)F)nc2ccc(OC)cc12 | 230 nM |
| CC(C)[C@H]1C(=O)N(S(C)(=O)=O)[C@H]2CCN(C(=O)c3ccc(CN4CCCCC4)c([N+](=O)[O-])c3)[C@H]12 | 620 nM |
| COc1cc(NC2=NS(=O)(=O)c3cc(Cl)ccc3N2C)cc(OC)c1OC | 420 nM |
| CN(C)CCN(C)Cc1ccc(-c2ccc(NC(=O)c3ccc(Cl)cc3)cc2)cc1 | 940 nM |
| Cc1c(Cc2ccc(C(C)C)cc2)cnc2nc(N)nc(N)c12 | 300 nM |
| COc1cc(C2NCC3(CCOCC3)c3cc4c(cc32)OCCO4)cc(OC)c1OC (centres undefined) | 170 nM |
| O=C(Nc1cccc(CN2CCCN(Cc3ccccc3)CC2)c1)c1cc2ccccc2s1 | 1200 nM |
